Assay results from patent US20030143733A1, “Tetrapeptide” (La Jolla Cancer Research Foundation, priority 1985, published 2003).

Experiments:
[1] = tested on: normal rat kidney cells (NRK); assay: Cell attachment promoting activity assay (peptide coupled via SPDP to rabbit IgG immobilized on plastic); type: cell-based; conditions: freshly trypsinized NRK cells, one hour incubation
Procedure: (§1) Those peptides having a COOH-terminal cystine residue were assayed for their activity in promoting cell attachment by first attaching them via the heterobifunctional crosslinker SPDP (N-succinimidyl 3-(2-pyridyldithio) propionate, Sigma, St. Louis, Mo.) to rabbit IgG which was immobilized on plastic. The attachment assay was then carried out as described by Ruoslahti, E. et al., Methods Enzymology 82:803-831 (1981) using freshly trypsinized normal rat kidney cells (NRK). After a one hour incubation, those cells which had attached were fixed, stained and quantitated using either an Artek cell counter or a multiscan spectrophotometer. In all cases, maximum attachment was about 80-90% of the cells plated. The relative activity of each peptide is indicated by the concentration of the peptides in nmoles/ml necessary to achieve half-maximal activity, or, where accurate quantitation was not possible, by the crosses at the right of FIG. 1, and by the graph in FIG. 2.

[2] = tested on: attachment of cells to a fibronectin-coated substrate; assay: Inhibition of cell attachment to fibronectin-coated substrate by solubilized peptide; type: cell-based; conditions: peptide in solubilized form combined with free cells
Procedure: as §1, with “In all cases, maximum attachment was about 80-90% of the cells plated.” left out
If the mechanism of cell attachment involves the recognition of the amino acid sequence of the tetrapeptide by a receptor on the cell, then it could be postulated that attachment could be inhibited by preventing this recognition by “blocking” the receptor. […] In separate experiments, various concentrations of the tetrapeptide (Arg-Gly-Asp-Ser) and a hexapeptide, Pro-Arg-Gly-Asp-Ser-Gly in a solubilized form were combined with the free cells, and attachment activity measured as above.

Substance | cell attachment promoting activity [1] | inhibition of normal attachment of cells to a fibronectin-coated substrate [2]
H-Arg-Gly-Asp-Ser-OH (RGDS; printed: Arg-Gly-Asp-Ser) | had the property of causing cell attachment | inhibit the normal attachment of cells
PRGDSG [Pro-Arg-Gly-Asp-Ser-Gly] | – | inhibit the normal attachment of cells
RVDSPAC [peptide with substitution of the glycine with the bulky valine residue] | abolished the activity | –
